Results: patent US10221144B2, “Antibacterial compounds having broad spectrum of activity” (priority 2014, dated 2019)
Where a name gives a salt, the structure may show the parent alone. Read-outs that look alike come from different tables or passages of the source.

Tests used:
Assay type in all cases: biochemical
E. coli Topoisomerase IV = molecular target: T1, E. coli Topoisomerase IV (Escherichia coli, UniProt P0AFI2+P20083); test: Topoisomerase IV decatenation assay (E. coli); settings: for inhibition at 200 µM: conc. 200 μM; for inhibition at 50 µM: conc. 50 μM
T1 construct: purchased Inspiralis, UK
T1 sequence (P20083 whole entry): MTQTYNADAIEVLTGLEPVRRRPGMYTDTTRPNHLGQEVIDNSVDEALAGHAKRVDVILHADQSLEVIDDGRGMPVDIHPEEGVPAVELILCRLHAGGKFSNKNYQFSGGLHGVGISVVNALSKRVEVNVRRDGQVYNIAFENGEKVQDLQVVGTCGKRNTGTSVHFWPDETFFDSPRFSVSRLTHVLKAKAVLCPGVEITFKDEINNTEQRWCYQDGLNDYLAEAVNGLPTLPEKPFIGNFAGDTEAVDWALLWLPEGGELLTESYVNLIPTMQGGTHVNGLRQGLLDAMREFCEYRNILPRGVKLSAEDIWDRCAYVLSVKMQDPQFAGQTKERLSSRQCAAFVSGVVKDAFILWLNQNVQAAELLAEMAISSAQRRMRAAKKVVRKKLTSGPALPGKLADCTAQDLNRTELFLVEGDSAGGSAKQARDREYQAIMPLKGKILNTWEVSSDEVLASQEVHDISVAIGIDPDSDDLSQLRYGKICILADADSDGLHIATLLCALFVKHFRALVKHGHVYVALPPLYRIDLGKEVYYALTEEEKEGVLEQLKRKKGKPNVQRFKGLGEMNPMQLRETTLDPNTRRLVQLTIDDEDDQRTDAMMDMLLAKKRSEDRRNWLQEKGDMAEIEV
T1 sequence (P0AFI2 whole entry): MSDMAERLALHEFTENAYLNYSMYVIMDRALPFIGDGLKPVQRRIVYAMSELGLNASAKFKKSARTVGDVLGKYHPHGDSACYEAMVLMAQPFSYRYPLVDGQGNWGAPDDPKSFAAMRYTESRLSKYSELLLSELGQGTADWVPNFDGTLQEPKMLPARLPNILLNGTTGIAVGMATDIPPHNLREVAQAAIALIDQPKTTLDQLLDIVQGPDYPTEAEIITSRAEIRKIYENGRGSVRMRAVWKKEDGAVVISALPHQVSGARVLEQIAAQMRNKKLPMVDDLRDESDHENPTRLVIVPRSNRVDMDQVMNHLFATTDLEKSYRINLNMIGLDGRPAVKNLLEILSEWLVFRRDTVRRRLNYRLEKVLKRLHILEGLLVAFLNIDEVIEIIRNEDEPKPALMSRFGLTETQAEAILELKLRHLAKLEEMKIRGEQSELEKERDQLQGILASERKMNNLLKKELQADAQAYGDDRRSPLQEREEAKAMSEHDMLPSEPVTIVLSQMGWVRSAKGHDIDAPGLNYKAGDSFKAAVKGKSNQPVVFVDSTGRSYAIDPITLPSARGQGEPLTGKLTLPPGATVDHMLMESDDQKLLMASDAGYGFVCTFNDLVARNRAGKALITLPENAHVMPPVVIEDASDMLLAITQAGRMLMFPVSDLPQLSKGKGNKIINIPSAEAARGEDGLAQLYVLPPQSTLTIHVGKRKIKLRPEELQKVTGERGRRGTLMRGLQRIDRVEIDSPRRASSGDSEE
Method: (§1) The above compounds were tested for the inhibition of the enzyme DNA gyrase in a gyrase supercoiling assay and for the inhibition of the enzyme topoisomerase IV in a decatenation assay, in both Gram positive and Gram negative bacteria, according to the following methods.
(§2) Both the assays were carried out according to a set-up method modified from the article to Blanche F, et al. “Differential Behaviors of Staphylococcus aureus and Escherichia coli Type II DNA Topoisomerases”, Antimicrob. Agents Chemother., 1996, Vol. 40, No. 12 p. 2714-2720.
(§3) The compounds were screened at single concentration (200, 100 or 50 μM), in duplicate.
S. aureus and E. coli Topoisomerase IV decatenation kits (Inspiralis, UK) were used. A master mix with a total volume sufficient for the number of reactions to perform was prepared with the following reagents: 5× assay buffer (50 mM HEPES-KOH (pH 7.6), 100 mM potassium glutamate, 10 mM magnesium acetate, 10 mM DTT, 1 mM ATP, 50 μg/ml albumin), kDNA substrate (200 ng/reaction), RNase-DNase free water. Aliquots of this mix were dispensed in each tube, then 10× compound stock solutions or vehicle control (DMSO), were added in each reaction tube.
Reaction was started with Topoisomerase IV enzyme (0.5 U/reaction) addition.
(§4) A sample added with an equal volume of dilution buffer was used as negative control (without enzyme).
The reaction tubes were gentle vortexed and incubated 30 minutes at 37° C. Each reaction was stopped by adding 30 μl of Stop Buffer and 30 μl of chloroform/isoamyl alcohol (24/1), briefly vortexed for 5-10 seconds and centrifuged at 20000×g for 2 minutes. Samples taken from the upper phase were loaded into 1% agarose gel and subjected to electrophoresis for 1 hour at 80V constant voltage in TAE (40 mM Tris-acetate, 2 mM EDTA).
Data acquisition and analysis. Due to the high molecular mass, kDNA could not enter an agarose gel under normal electrophoresis conditions, but remained in the wells. In the presence of Topo IV topoisomerase mini-circles (2.5 Kb) were released from kDNA by decatenation and were quickly and easily resolved in the gel at relatively high voltages.
Bands were visualized by ethidium bromide staining (dil 1:20000) for 30 minutes followed by destaining in distilled water for 10 minutes.
For single concentration screening assay, in order to evaluate the compounds activity on the enzymes, the bands of decatenated DNAs in the gel were photographed by a digital imaging system ImageQuant LAS 4000 (GE Healthcare) according to manufacturer's instructions.
(§5) The fluorescent intensity of each band was analyzed by ImageQuant TL software and it was expressed as volume (volume of the uncalibrated quantity of material in the image feature after subtraction of the background intensity by using rolling ball method).
(§6) Each band intensity was compared, as percentage, to vehicle sample band intensity, which served as positive control, on the same gel.
(§7) Inhibitory activity was expressed as percent of inhibition versus the positive control.
(§8) The supercoiled or decatenated DNA bands obtained as described in Example 1 were analysed as follows.
(§9) Bands were analyzed by gel documentation equipment (Syngene, Cambridge, UK) and quantitated using Syngene Gene Tools software. Raw gel data (fluorescent band volumes) collected from Syngene, GeneTools gel analysis software were converted to a percentage of the 100% control (the fully supercoiled or decatenated DNA band). […] The IC50 data were calculated by using the global curve fit non-linear regression tool by selecting the Single, 2 Parameter fit function from the Exponential Decay equation category.

E. coli DNA gyrase = molecular target: T2, E. coli DNA gyrase (Escherichia coli, UniProt P0AES4+P0AES6); test: DNA gyrase supercoiling assay (E. coli); settings: for inhibition at 200 µM: conc. 200 μM; for inhibition at 50 µM: conc. 50 μM
T2 construct: purchased Inspiralis, UK
T2 sequence (P0AES4 whole entry, one chain of several): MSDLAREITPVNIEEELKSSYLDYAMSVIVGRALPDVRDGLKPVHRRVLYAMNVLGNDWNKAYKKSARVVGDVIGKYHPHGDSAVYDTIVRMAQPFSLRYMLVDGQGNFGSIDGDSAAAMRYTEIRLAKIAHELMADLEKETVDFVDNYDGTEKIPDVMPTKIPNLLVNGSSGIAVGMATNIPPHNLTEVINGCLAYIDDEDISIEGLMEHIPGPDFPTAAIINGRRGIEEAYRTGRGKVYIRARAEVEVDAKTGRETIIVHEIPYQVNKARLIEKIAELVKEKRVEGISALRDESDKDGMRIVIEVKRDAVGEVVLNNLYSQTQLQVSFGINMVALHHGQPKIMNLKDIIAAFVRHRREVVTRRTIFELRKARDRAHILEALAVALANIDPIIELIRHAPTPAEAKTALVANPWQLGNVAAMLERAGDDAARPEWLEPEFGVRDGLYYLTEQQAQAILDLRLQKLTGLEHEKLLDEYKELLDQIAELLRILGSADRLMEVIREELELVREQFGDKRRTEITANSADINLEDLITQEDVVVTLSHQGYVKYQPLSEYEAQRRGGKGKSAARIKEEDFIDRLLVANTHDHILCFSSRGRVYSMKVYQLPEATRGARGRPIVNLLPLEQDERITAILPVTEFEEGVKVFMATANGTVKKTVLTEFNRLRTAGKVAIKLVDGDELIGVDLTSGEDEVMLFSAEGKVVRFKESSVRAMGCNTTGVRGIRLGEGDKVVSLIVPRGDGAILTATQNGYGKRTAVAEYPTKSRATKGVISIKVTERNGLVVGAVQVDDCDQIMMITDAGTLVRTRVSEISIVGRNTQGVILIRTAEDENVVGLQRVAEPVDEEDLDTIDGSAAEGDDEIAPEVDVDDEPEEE
Method: as §1, §2, §3
(§10) Reagents from S. aureus and E. coli Gyrase Supercoiling Assay kits (Inspiralis, UK) were used. A master mix with a total volume sufficient for the number of reactions to perform was prepared with the following reagents: 5× assay buffer, relaxed pBR322 substrate (0.5 μg/reaction), RNase-DNase free water. Aliquotes of this mix were dispensed in each tube, then 10× compound stock solutions or vehicle control (DMSO), were added to each reaction tube.
(§11) Reaction was started with E. Coli (2 U/reaction) or S. aureus (1 U/reaction) gyrase enzyme addition.
as §4
(§12) The reaction tubes were gentle vortexed and incubated 30 minutes at 37° C. Each reaction was stopped by adding 30 μl of Stop Buffer and 30 μl chloroform/isoamyl alcohol (24/1), briefly vortexed for 5-10 seconds and centrifuged at 20000×g for 2 minutes. Samples were loaded onto 1% agarose gel and subjected to electrophoresis for 1 hour at 80V constant voltage in TAE (40 mM Tris-acetate, 2 mM EDTA).
(§13) Data acquisition and analysis. Treatment of relaxed pBR322 with DNA gyrase converted the relaxed topoisomers (DNAs of different linking number) to the supercoiled form of the plasmid, which migrates faster on an agarose gel. An upper band might also be visible, which consists of open-circular (nicked) DNA which is present in the relaxed substrate but co-migrates with some of the relaxed topoisomers.
(§14) Bands were visualized by ethidium bromide staining (dilution 1:20000) for 30 minutes followed by destaining in distilled water for 10 minutes.
(§15) In order to evaluate the compounds activity on the enzyme, the bands of supercoiled DNAs in the gel were photographed by a digital imaging system ImageQuant LAS 4000 (GE Healthcare) according to manufacturer's instructions.
as §5, §6, §7, §8, §9

S. aureus DNA gyrase = molecular target: T3, S. aureus DNA gyrase (Staphylococcus aureus, UniProt P0A0K8+P20831); test: DNA gyrase supercoiling assay (S. aureus); settings: for inhibition at 50 µM: conc. 50 μM
T3 construct: purchased Inspiralis, UK
T3 sequence (P0A0K8 whole entry): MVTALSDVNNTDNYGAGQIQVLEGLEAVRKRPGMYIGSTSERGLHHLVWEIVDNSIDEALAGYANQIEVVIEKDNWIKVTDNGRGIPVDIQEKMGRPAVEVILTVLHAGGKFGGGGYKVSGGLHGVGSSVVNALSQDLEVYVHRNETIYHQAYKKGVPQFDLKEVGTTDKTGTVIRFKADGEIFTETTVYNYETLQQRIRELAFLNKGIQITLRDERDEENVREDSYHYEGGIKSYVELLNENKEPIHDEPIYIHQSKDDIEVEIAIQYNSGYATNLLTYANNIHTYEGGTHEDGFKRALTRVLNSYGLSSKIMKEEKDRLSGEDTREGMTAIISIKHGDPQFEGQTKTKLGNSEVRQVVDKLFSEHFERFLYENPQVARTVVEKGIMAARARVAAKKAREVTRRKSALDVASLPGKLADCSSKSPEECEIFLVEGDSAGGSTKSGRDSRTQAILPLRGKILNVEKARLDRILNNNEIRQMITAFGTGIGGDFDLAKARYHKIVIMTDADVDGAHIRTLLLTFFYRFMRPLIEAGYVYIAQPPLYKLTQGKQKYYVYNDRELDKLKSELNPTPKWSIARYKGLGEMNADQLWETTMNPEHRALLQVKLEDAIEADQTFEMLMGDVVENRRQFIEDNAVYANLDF
T3 sequence (P20831 whole entry): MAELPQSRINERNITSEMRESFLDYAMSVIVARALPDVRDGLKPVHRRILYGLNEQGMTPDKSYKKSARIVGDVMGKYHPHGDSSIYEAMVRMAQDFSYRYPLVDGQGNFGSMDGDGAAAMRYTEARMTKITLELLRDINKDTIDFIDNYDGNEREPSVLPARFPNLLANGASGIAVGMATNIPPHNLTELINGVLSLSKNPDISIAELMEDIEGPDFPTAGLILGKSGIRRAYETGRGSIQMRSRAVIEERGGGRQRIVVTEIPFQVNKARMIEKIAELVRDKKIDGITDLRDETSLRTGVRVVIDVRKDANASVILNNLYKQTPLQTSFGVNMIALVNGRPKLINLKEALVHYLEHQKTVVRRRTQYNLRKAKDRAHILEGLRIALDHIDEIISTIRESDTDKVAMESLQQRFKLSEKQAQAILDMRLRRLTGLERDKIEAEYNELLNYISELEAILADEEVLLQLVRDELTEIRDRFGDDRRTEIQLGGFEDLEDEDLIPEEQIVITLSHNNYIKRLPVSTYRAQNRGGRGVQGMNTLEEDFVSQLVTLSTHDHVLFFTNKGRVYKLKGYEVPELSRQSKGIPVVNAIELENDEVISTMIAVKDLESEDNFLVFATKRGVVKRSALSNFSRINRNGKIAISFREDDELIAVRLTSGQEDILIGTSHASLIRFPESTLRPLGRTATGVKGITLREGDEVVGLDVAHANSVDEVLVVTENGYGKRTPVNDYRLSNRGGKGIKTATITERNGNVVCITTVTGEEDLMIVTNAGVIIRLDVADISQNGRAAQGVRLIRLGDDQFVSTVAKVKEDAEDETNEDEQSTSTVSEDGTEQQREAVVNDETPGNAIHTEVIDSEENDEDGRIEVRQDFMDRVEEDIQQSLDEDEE
Method: as §1, §2, §3, §10, §11, §4, §12, §13, §14, §15, §5, §6, §7, §8, §9

[1] = E. coli, n/a = not active, read-out: % inhibition Topo IV
[2] = E. coli, conc. 100 μM, n/a = not active
[3] = S. aureus, conc. 100 μM, n/a = not active

O=c1cc(NC2CCN(CCCc3cccc4ocnc34)CC2)c2ccccc2o1 [Compound 27, 4-({1-[3-(1,3-benzoxazol-4-yl)propyl]piperidin-4-yl}amino)-2H-chromen-2-one]
inhibition at 200 µM (E. coli Topoisomerase IV; [1]): 53%
inhibition at 200 µM (E. coli DNA gyrase; E. coli, n/a = not active): 61%

O=c1cc(NCCCN2CCN(c3nccc4ccc(F)cc34)CC2)c2c(o1)CCOC2 [Compound 125, 4-({3-[4-(7-fluoroisoquinolin-1-yl)piperazin-1-yl]propyl}amino)-7,8-dihydro-2H,5H-pyrano[4,3-b]pyran-2-one]
IC50 (E. coli Topoisomerase IV): 59 µM
inhibition at 50 µM (E. coli Topoisomerase IV; [1]): 68%
IC50 (E. coli DNA gyrase): 6.3 µM
inhibition at 50 µM (E. coli DNA gyrase; E. coli, n/a = not active): 86%
IC50 (S. aureus DNA gyrase): 19 µM
inhibition at 50 µM (S. aureus DNA gyrase; S. aureus, n/a = not active): 89%

NC(=O)C1CN(c2nccc3ccccc23)CCN1CCCNc1cc(=O)oc2ccccc12 (stereo not drawn) [Compound 89, 4-(isoquinolin-1-yl)-1-{3-[(2-oxo-2H-chromen-4-yl)amino]propyl}piperazine-2-carboxamide hydrochloride]
IC50 (E. coli Topoisomerase IV): 54 µM
inhibition at 50 µM (E. coli Topoisomerase IV; [1]): 51%
IC50 (E. coli DNA gyrase): 28 µM
inhibition at 50 µM (E. coli DNA gyrase; E. coli, n/a = not active): 87%

O=c1cc(NC2CCN(CCCc3nccc4ccccc34)CC2)c2ccccc2o1 [Compound 29, 4-({1-[3-(isoquinolin-1-yl)propyl]piperidin-4-yl}amino)-2H-chromen-2-one]
IC50 (E. coli Topoisomerase IV): 10 µM
inhibition at 200 µM (E. coli Topoisomerase IV; [1]): 100%
IC50 (E. coli DNA gyrase): 6 µM
inhibition at 200 µM (E. coli DNA gyrase; E. coli, n/a = not active): 92%
IC50 (S. aureus DNA gyrase): 20 µM
inhibition at 200 µM (S. aureus DNA gyrase; S. aureus, conc. 200 μM, n/a = not active): 86%

O=c1oc2ccccc2c2[nH]c(CNC3CCN(c4nccc5ccc(F)cc45)CC3)nc12 [Compound 146, 2-({[1-(7-fluoroisoquinolin-1-yl)piperidin-4-yl]amino}methyl)[1]benzopyrano[3,4-d]imidazol-4(1H)-one]
inhibition at 50 µM (E. coli Topoisomerase IV; [1]): 100%
inhibition at 50 µM (E. coli DNA gyrase; E. coli, n/a = not active): 91%
inhibition at 50 µM (S. aureus DNA gyrase; S. aureus, n/a = not active): 93%

O=c1oc2ccccc2c2[nH]c(CNC3CCN(c4nccc5ccc(F)cc45)CC3)cc12 [Compound 145, 2-({[1-(7-fluoroisoquinolin-1-yl)piperidin-4-yl]amino}methyl)[1]benzopyrano[4,3-b]pyrrol-4(1H)-one]
inhibition at 50 µM (E. coli Topoisomerase IV; [1]): 100%
inhibition at 50 µM (E. coli DNA gyrase; E. coli, n/a = not active): 99%
inhibition at 50 µM (S. aureus DNA gyrase; S. aureus, n/a = not active): 97%

O=c1cc(NCCCN2CCN(c3nccc4cccnc34)CC2)c2ccccc2o1 [Compound 61, 4-({3-[4-(1,7-naphthyridin-8-yl)piperazin-1-yl]propyl}amino)-2H-chromen-2-one]
IC50 (E. coli Topoisomerase IV): 20.2 µM
inhibition at 100 µM (E. coli Topoisomerase IV; E. coli, conc. 100 μM, n/a = not active, read-out: % inhibition Topo IV): 92%
IC50 (E. coli DNA gyrase): 3.3 µM
inhibition at 100 µM (E. coli DNA gyrase; [2]): 92%
IC50 (S. aureus DNA gyrase): 8.7 µM
inhibition at 100 µM (S. aureus DNA gyrase; [3]): 88%

5-chloro-1,6-naphthyridine [Compound 65]
% inhibition Topo IV (E. coli Topoisomerase IV; [2]): 80%
IC50 (E. coli Topoisomerase IV; E. coli, concentration-response curve, eight half-log concentrations 0.1 to 300 μM, read-out: IC50 Topo IV): 29.3 µM
% inhibition DNA gyrase (E. coli DNA gyrase; [2]): 94%
IC50 (E. coli DNA gyrase; E. coli, concentration-response curve, eight half-log concentrations 0.1 to 300 μM, read-out: IC50 DNA gyrase): 40.6 µM
% inhibition DNA gyrase (S. aureus DNA gyrase; [3]): 80%
IC50 (S. aureus DNA gyrase; S. aureus, concentration-response curve, eight half-log concentrations 0.1 to 300 μM, read-out: IC50 DNA gyrase): 26.8 µM

O=c1cc(NCCC[N+]2([O-])CCN(c3nccc4ccc(F)cc34)CC2)c2ccccc2o1 [Compound 105, 4-({3-[4-(7-fluoroisoquinolin-1-yl)-1-oxidopiperazin-1-yl]propyl}amino)-2H-chromen-2-one]
IC50 (E. coli Topoisomerase IV): 5.6 µM
inhibition at 50 µM (E. coli Topoisomerase IV; [1]): 66%
IC50 (E. coli DNA gyrase): 11.4 µM
inhibition at 50 µM (E. coli DNA gyrase; E. coli, n/a = not active): 91%
IC50 (S. aureus DNA gyrase): 6.6 µM
inhibition at 50 µM (S. aureus DNA gyrase; S. aureus, n/a = not active): 100%
